In publication PMC8800018, “Discovery of novel selective PI3Kγ inhibitors through combining machine learning-based virtual screening with multiple protein structures and bio-evaluation” (Journal of Advanced Research, 2021):
Where two headings read alike, the source gives them in different places. Each block holds one compound with its values, some of them ahead of it.

Key:
PI3Kγ = PI3Kγ (Homo sapiens, UniProt P48736); test: ADP-Glo cell-free PI3K kinase activity assay; details: compounds 10 μM, initial screening, Fig. 3A
Protocol: (§6) The PI3K inhibitory activities of these pro-hits were all determined by ADP-Glo assay (Promega) [39]. […] 2.5 μL ATP/substrate mixture was added into the wells to initiate kinase reactions and incubated at room temperature for 1 h. Then, the reactions were stopped by addition of 5 μL ADP-Glo reagent and incubation for 120 min at room temperature. Before reading the luminescence signals of each well, 10 μL kinase detection buffer was added and incubated for 30 min at room temperature.

[1] = test system: PARP and caspase-3 cleavage in K562 cells; test: Western Blot of apoptosis biomarkers; assay type: cell-based, human
Protocol: (§1) K562 and RPMI-8226 cells were cultured in 6-well plates with 1 × 10^6 cells per well and then treated with various concentrations of JN-KI3: 0, 2.5, 5, 10, and 20 μM. After 24 h, the cells of each well were collected and washed by PBS 3 times. The sedimentary cells were then incubated in an ice bath with 80 μL RIPA lysis buffer (Beyotime) for 20 min and then centrifuged at 12,000 rpm for 20 min. The supernatant was collected and its total concentration of protein was quantified using the BCA protein assay kit (Biosharp). Loading buffer (5 ×) was added to all protein samples prepared for Western Blot assays and boiled at 100℃ for 5 min.
(§2) The inhibitory situation of PI3K/AKT (Protein kinase B) signaling pathway was then determined by Western Blot assays. The SDS-polyacrylamide gel electrophoresis (PAGE) was used to separate the proteins. All protein samples and Protein Marker (Proteintech) were loaded onto an acrylamide gel and ran for 30 min at 80 V within the staking gel and for 1 h at 100 V with the separating gel. Then, the protein was electro-transferred onto an NC membrane at 100 V for 1 h. After that, the membrane was blocked in 5% skim milk diluted in TBST (1 ×) for 2 h and then the membrane was incubated with relevant primary antibody overnight at 4℃: Phospho-AKT (Thr308) (1 : 1000, cat# 13038 T; Cell Signaling Technology), Phospho-AKT (Ser473) (1: 1000, cat# 4060 T; Cell Signaling Technology), AKT (pan) (1: 1000, cat# 4691 T; Cell Signaling Technology), caspase-3 (1: 1000, cat# sc-56053; Santa Cruz Biotechnology), PARP (1: 1000, cat# 9542S; Cell Signaling Technology). GAPDH (1: 5000, cat#60004–1-Ig; Santa Cruz Biotechnology), After 10-min washing in TBST (1 ×) for 3 times, the membrane was incubated with relevant secondary antibody at room temperature on a shaker for 1 h. And the membrane was washed for 4 times in TBST again before being imaged.

[2] = test system: PARP and caspase-3 cleavage in RPMI-8226 cells; test: Western Blot of apoptosis biomarkers; assay type: cell-based, human
Protocol: as §1, §2

RPMI-8226 cells [3] = test: MTT cell proliferation assay; assay type: cell-based, human; details: 72 h, Fig. 3C, compared with IPI-145
From the text: (§3) The human cancer lines, MDA-MB-231, Patu8988, HepG2, A2780, LOVO, H1299, A549, HCT-8, SW480, 3AO, and MGC-803 were saved by the lab of Dr. Jian Jin, Jiangnan University. MCF-7 was purchased from the American Type Culture Collection (ATCC). Human malignant blood tumor cells, HL-60, U266, OPM2, OCI-My5, RPMI-8226, NCI-H929, Jurkat, LP-1, CCRF-CEM, K562, and U937, were provided by Dr. Xinliang Mao, Soochow University. MDA-MB-231, Patu8988, HepG2, A2780, LOVO, H1299, A549, HCT-8, SW480, 3AO, MGC-803, and MCF-7 were cultured in Dulbecco’s Modified Eagle Medium (DMEM, Gibco); U266, RPMI-8226, OPM2, OCI-My5, NCI-H929 and LP-1 were cultured in Iscove’s Modified Dulbecco’s Medium (IMDM. Gibco). The rest of cell lines were cultured in RPMI-1640 medium (Gibco). All mediums were supplemented with 10% fetal bovine serum (FBS, Gibco), 100 μg/mL penicillin and streptomycin, and all cells were maintained in a cell incubator with 5% CO2 at 37℃.
(§4) All cells were incubated in 96-well culture plates with 100 μL medium in each well. The concentration of solid cells (MDA-MB-231, MCF-7, Patu8988, HepG2, A2780, 3AO, LOVO, HCT-8, SW480, A549, H1299, and MGC-803) was 3,000/well and the concentration of suspension cells (HL-60, U266, OPM2, OCI-My5, RPMI-8226, NCI-H929, Jurkat, LP-1, CCRF-CEM, K562, and U937) was 7,500/well. […] The viability of the cancer cells was evaluated by Thiazolyl Blue (MTT) assay. 10 μL of 5 mg/mL MTT was added to each well and the plate was incubated at 37℃ for 4 h. Then, 100 μL MTT buffer was added to each well. After incubating the plate overnight, the absorbance of each well was measured at 550 nm by a microplate reader. All data were normalized to control groups (5 μL DMSO) and converted into the percent of living cells. All results were represented as the mean and standard deviation (SD) of the three independent measurements.

K562 cells [4] = test: MTT cell proliferation assay; assay type: cell-based, human
From the text: as §3, §4

U937 cells = test: MTT cell proliferation assay; assay type: cell-based, human; details: 72 h, Fig. 3C, compared with IPI-145
From the text: as §3, §4

PI3Kδ = PI3Kδ (Homo sapiens, UniProt O00329); test: ADP-Glo cell-free PI3K kinase activity assay
Protocol: as §6

[5] = test system: hematologic tumor cell lines (HL-60, Jurkat, CCRF-CEM, K562, OPM2, OCI-My5, LP-1, RPMI-8226, U937); test: MTT cell proliferation assay, hematologic tumor cell lines, gradient of concentrations; assay type: cell-based, human; details: Fig. 3D
From the text: as §3
All cells were incubated in 96-well culture plates with 100 μL medium in each well. […] The viability of the cancer cells was evaluated by Thiazolyl Blue (MTT) assay. […] After incubating the plate overnight, the absorbance of each well was measured at 550 nm by a microplate reader. […]

[6] = test system: AKT phosphorylation (Thr308, Ser473) in K562 cells; test: Western Blot of PI3K/AKT signaling; assay type: cell-based, human
Protocol: as §1, §2

[7] = test system: AKT phosphorylation (Thr308, Ser473) in RPMI-8226 cells; test: Western Blot of PI3K/AKT signaling; assay type: cell-based, human
Protocol: as §1, §2

RPMI-8226 cells [8] = test: Annexin V-FITC/PI flow cytometry apoptosis assay; assay type: cell-based, human; details: RPMI-8226, 10 μM, 24 h
Protocol: (§5) After being treated with JN-KI3 for 24 h, K562 and RPMI-8226 were stained with Annexin V-FITC/PI detection kit (Beyotime) and the apoptosis of the cells were detected using a flow cytometer (FACSCalibur, BD) following the instructions.

K562 cells [9] = test: Annexin V-FITC/PI flow cytometry apoptosis assay; assay type: cell-based, human; details: 24 h
Protocol: as §5

PI3Kα = PI3Kα (Homo sapiens, UniProt P42336); test: ADP-Glo cell-free PI3K kinase activity assay
Protocol: as §6

PI3Kβ = PI3Kβ (Homo sapiens, UniProt P42338); test: ADP-Glo cell-free PI3K kinase activity assay
PI3Kβ, sequence (P42338 whole entry): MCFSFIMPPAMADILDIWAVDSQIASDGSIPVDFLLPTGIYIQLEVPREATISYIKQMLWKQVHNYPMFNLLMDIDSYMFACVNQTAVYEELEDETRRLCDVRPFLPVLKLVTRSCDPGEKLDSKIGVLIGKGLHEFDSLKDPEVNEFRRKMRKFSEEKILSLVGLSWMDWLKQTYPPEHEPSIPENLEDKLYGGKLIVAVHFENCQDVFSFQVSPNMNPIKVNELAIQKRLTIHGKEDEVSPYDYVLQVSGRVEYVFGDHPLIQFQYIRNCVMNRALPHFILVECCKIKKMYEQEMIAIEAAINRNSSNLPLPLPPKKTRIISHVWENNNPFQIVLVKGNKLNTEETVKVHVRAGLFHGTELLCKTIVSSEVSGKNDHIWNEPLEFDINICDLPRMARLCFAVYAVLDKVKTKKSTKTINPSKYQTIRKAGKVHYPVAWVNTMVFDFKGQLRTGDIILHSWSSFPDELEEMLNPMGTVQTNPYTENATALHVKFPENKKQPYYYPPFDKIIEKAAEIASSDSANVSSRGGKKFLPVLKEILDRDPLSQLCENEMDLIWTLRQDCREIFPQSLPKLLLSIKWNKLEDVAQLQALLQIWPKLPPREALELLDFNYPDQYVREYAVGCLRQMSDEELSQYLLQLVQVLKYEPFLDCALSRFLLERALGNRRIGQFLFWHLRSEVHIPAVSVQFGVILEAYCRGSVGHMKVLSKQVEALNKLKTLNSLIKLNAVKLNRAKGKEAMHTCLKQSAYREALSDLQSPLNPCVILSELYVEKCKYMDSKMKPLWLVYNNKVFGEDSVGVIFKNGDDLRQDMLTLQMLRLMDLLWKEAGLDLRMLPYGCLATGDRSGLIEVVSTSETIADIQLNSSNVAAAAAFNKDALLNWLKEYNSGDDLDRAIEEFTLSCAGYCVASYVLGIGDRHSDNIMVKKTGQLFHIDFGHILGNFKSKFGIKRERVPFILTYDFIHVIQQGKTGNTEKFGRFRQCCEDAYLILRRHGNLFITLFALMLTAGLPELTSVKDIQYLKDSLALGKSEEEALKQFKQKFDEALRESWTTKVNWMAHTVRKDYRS
PI3Kβ, sequence (P27986 whole entry partner): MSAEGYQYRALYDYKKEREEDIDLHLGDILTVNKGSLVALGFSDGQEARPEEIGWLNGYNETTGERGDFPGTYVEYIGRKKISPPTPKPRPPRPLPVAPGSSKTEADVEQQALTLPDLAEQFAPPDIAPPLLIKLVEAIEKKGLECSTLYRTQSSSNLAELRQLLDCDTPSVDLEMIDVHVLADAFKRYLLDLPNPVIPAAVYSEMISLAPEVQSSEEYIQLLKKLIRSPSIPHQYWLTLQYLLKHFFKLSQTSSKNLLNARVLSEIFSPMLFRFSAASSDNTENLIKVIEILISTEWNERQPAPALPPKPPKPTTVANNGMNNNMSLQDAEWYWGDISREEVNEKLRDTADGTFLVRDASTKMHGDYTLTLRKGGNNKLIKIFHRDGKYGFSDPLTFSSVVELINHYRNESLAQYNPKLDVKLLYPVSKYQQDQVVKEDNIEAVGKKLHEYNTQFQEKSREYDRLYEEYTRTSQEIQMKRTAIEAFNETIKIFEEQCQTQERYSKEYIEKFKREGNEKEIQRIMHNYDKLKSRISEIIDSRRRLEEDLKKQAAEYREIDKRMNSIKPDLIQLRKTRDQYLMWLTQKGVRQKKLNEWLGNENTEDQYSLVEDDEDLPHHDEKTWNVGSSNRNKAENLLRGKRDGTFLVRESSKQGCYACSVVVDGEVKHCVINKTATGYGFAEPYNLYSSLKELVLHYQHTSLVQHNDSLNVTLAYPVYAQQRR
Protocol: as §6

PI3Kδ, sequence (O00329 whole entry): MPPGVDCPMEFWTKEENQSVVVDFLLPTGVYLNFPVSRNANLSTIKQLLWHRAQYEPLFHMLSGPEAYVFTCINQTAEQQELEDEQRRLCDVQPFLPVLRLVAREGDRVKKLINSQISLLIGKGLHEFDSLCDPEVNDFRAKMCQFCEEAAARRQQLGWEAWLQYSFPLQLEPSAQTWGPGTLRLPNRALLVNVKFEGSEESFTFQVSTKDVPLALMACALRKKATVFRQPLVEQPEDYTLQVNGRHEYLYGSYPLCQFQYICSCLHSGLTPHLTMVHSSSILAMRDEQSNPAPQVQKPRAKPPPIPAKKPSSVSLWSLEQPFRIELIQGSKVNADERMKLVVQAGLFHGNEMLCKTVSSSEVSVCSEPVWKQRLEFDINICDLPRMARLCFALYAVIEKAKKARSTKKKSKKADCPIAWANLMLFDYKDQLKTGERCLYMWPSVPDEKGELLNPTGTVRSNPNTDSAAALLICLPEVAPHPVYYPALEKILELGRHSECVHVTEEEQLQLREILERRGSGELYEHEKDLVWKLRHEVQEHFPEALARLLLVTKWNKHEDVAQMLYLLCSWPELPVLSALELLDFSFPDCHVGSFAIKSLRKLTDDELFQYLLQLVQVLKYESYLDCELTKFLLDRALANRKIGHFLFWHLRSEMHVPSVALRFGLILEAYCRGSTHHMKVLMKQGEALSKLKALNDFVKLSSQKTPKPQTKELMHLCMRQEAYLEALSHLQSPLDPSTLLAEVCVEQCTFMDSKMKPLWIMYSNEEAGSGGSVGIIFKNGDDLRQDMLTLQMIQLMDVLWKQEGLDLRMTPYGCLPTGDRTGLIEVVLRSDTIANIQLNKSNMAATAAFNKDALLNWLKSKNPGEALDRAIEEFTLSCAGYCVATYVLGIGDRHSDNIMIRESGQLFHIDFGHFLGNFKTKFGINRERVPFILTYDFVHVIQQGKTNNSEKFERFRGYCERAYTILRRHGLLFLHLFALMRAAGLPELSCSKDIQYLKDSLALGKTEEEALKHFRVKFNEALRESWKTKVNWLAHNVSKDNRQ
PI3Kδ, sequence (P27986 whole entry partner): as the sequence (P27986 whole entry partner) above
PI3Kα, sequence (P42336 whole entry): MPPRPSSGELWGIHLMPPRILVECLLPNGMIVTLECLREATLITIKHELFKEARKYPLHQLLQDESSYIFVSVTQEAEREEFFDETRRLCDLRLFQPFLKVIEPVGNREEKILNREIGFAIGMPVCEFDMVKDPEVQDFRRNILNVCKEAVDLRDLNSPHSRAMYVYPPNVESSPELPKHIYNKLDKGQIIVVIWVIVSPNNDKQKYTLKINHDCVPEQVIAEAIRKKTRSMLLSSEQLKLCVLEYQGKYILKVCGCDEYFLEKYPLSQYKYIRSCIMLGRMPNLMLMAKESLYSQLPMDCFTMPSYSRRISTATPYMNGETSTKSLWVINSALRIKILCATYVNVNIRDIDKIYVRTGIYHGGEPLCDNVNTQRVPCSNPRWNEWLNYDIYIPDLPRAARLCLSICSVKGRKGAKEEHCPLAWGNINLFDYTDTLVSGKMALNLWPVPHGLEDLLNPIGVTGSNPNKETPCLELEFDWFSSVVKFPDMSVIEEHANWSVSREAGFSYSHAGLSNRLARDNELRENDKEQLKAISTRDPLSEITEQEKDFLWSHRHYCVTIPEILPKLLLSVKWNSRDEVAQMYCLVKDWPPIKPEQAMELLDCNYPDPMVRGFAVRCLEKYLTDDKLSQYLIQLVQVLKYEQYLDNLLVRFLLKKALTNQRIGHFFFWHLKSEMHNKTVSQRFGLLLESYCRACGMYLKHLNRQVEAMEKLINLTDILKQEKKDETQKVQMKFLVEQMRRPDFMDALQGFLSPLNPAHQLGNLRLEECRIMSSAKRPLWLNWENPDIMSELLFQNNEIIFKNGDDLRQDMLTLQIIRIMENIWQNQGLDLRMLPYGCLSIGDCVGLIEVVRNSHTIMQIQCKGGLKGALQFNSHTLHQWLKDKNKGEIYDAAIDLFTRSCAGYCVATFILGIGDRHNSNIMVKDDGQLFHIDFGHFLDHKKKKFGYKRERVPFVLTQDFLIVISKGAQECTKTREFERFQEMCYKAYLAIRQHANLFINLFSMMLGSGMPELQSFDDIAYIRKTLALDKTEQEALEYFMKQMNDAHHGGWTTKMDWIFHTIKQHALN
PI3Kα, sequence (P27986 whole entry partner): as the sequence (P27986 whole entry partner) above
PI3Kγ, sequence (P48736 whole entry): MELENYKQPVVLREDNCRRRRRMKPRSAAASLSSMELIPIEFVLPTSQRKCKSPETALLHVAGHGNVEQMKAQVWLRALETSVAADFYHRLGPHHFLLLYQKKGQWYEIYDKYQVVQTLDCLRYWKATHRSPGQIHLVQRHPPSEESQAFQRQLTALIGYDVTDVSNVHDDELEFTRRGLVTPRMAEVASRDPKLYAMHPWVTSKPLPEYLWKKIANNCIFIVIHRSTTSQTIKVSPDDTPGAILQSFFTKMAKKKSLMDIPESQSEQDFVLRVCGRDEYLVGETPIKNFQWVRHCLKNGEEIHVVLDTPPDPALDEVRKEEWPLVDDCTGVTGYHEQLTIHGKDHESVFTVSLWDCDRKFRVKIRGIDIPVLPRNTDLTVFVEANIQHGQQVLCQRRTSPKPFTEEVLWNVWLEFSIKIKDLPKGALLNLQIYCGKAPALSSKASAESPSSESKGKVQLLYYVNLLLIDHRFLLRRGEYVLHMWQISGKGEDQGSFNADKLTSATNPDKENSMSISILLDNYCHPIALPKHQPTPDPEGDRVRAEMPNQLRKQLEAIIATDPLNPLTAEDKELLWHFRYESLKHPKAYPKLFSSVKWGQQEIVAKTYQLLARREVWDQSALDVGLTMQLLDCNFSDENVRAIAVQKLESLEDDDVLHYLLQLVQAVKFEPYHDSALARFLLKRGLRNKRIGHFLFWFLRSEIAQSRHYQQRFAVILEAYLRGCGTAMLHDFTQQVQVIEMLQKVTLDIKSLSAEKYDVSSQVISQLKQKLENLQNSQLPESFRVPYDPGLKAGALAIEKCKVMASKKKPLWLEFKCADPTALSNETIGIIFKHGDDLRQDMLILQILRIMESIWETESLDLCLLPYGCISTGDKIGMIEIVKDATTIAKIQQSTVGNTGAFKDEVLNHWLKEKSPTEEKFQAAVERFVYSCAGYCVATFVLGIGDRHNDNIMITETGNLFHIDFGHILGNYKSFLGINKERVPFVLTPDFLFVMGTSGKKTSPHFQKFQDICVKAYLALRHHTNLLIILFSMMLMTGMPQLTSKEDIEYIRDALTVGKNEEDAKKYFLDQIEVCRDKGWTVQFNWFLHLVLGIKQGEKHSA

PI3Kγ inhibitory percent (PI3Kγ): strongest inhibitory activity
SMILES: C[C@H](Nc1ncnc2nc[nH]c12)c1cc2cccc(Cl)c2c(=O)n1-c1ccccc1 [IPI-145]

SMILES: CC(=O)c1c(C)n(-c2ccc(C)cc2)c2ccc(OCC(O)CNCc3ccc(Cl)cc3)cc12 (centres unmarked) [JN-KI3]
cleavage level of Caspase-3 and PARP, time course ([1]; K562, 20 μM, after 6 h): significantly increased
cleavage levels of PARP and caspase-3 ([1]; K562, increasing concentrations, 24 h): obviously increased
cleavage level of Caspase-3 and PARP, time course ([2]; RPMI-8226, 20 μM, after 6 h): significantly increased
cleavage levels of PARP and caspase-3 ([2]; RPMI-8226, increasing concentrations, 24 h): obviously increased
anti-proliferative activity, RPMI-8226 (RPMI-8226 cells [3]): stronger than IPI-145
anti-proliferative activity, K562 (K562 cells [4]; 72 h, MTT, Fig. 3B/3C): stronger than IPI-145
sensitivity of K562 proliferation (K562 cells [4]; gradient of concentrations, low concentration, Fig. 3D): significant sensitivity
anti-proliferative activity, U937 (U937 cells): stronger than IPI-145
IC50 (PI3Kδ; read-out: Cell-free inhibitory IC50 PI3Kδ, ATP 25 μM, average of triple tests): > 20 µM
IC50 (PI3Kδ; read-out: IC50 PI3Kδ, Table 4): > 20 µM
proliferation of hematologic tumor cell lines [5]: decreased in a concentration-dependent manner
phosphorylation level of AKT at both sites, time course ([6]; K562, 20 μM, 0 to 24 h): significantly inhibited
t-AKT, time course ([6]; K562, 20 μM, 0 to 24 h): not markedly affected
AKT phosphorylation at Thr308 and Ser473 ([6]; K562, increasing concentration (2.5-20 μM), 24 h, inhibition even at 2.5 μM): markedly decreased
expression of total AKT (t-AKT) ([6]; K562, increasing concentration, 24 h): not affected
phosphorylation level of AKT at both sites, time course ([7]; RPMI-8226, 20 μM, 0 to 24 h): significantly inhibited
t-AKT, time course ([7]; RPMI-8226, 20 μM, 0 to 24 h): not markedly affected
AKT phosphorylation at Thr308 and Ser473 ([7]; RPMI-8226, increasing concentration (2.5-20 μM), 24 h, inhibition even at 2.5 μM): markedly decreased
expression of total AKT (t-AKT) ([7]; RPMI-8226, increasing concentration, 24 h): not affected
cells occurring apoptosis (RPMI-8226 cells [8]): about 20.43%
cells occurring apoptosis (K562 cells [9]; K562, 2.5 μM): 41.2%
cells occurring apoptosis (K562 cells [9]; K562, 5 μM): 47.5%
cells occurring apoptosis (K562 cells [9]; K562, 10 μM): 65.7%
IC50 (PI3Kα; read-out: Cell-free inhibitory IC50 PI3Kα, ATP 25 μM, average of triple tests): > 20 µM
IC50 (PI3Kα; read-out: IC50 PI3Kα, Table 4): > 20 µM
IC50 (PI3Kβ; read-out: Cell-free inhibitory IC50 PI3Kβ, ATP 25 μM, average of triple tests): > 20 µM
IC50 (PI3Kβ; read-out: IC50 PI3Kβ, Table 4): > 20 µM

IC50 (PI3Kδ): 0.78 µM
SMILES: O=c1cc(N2CCOCC2)oc2c(-c3ccccc3)cccc12 [LY294002, reference compound]
